Test results: patent US9695155B2, “Herbicidal substituted pyrimidinyloxy benzene compounds” (E. I. DU PONT DE NEMOURS AND COMPANY, priority 2013, dated 2017)

Tests used:
[1] = test system: morningglory; assay: Test A preemergence; format: in vivo, Ipomoea spp.
Summary of the method: (§1)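 Visual injury scored 0–100 (100 = complete control) against untreated controls about 10 days after treatment in a greenhouse. Test chemicals, formulated with surfactant in non-phytotoxic solvent, were sprayed on soil preemergence or on 2-10 cm, one- to two-leaf plants postemergence.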

[2] = test system: velvetleaf; assay: Test C postemergence; format: in vivo, Abutilon theophrasti; conditions: Abutilon theophrasti, post-emergence
Summary of the method: (§2)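 Visual ratings on a 0–100 scale (100 = complete control) were made versus untreated controls after 13–15 greenhouse days. Chemicals in a surfactant-containing non-phytotoxic solvent were applied either preemergence to seeds in loam–sand soil or postemergence to 1- to 4-leaf plants 2–18 cm tall.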

[3] = test system: giant foxtail; assay: Test C preemergence; format: in vivo, Setaria faberii; conditions: Setaria faberi, pre-emergence
Summary of the method: as §2

[4] = test system: ragweed; assay: Test C preemergence; format: in vivo, Ambrosia elatior; conditions: Ambrosia artemisiifolia, pre-emergence
Summary of the method: as §2

[5] = test system: large (Lg) crabgrass; assay: Test A preemergence; format: in vivo, Digitaria sanguinalis; conditions: Digitaria sanguinalis, pre-emergence, 240 h
Summary of the method: as §1

[6] = test system: pigweed; assay: Test C postemergence; format: in vivo, Amaranthus retroflexus; conditions: Amaranthus retroflexus, post-emergence
Summary of the method: as §2

[7] = test system: pigweed; assay: Test A preemergence; format: in vivo, Amaranthus retroflexus; conditions: Amaranthus retroflexus, pre-emergence
Summary of the method: as §1

[8] = test system: corn; assay: Test A postemergence; format: in vivo, Zea mays; conditions: Zea mays, post-emergence, 240 h
Summary of the method: as §1

[9] = test system: waterhemp; assay: Test C preemergence; format: in vivo, Amaranthus rudis; conditions: Amaranthus tuberculatus, pre-emergence
Summary of the method: as §2

[10] = test system: galium; assay: Test C postemergence; format: in vivo, Galium aparine; conditions: Galium, post-emergence
Summary of the method: as §2

[11] = test system: johnsongrass; assay: Test C preemergence; format: in vivo, Sorghum halepense; conditions: Sorghum halepense, pre-emergence
Summary of the method: as §2

[12] = test system: oilseed rape; assay: Test C postemergence; format: in vivo, Brassica napus; conditions: Brassica napus, post-emergence
Summary of the method: as §2

[13] = test system: soybean; assay: Test C preemergence; format: in vivo, Glycine max; conditions: Glycine max, pre-emergence
Summary of the method: as §2

[14] = test system: ragweed; assay: Test C postemergence; format: in vivo, Ambrosia elatior; conditions: Ambrosia artemisiifolia, post-emergence
Summary of the method: as §2

[15] = test system: wheat; assay: Test A postemergence; format: in vivo, Triticum aestivum; conditions: Triticum aestivum, post-emergence, 240 h
Summary of the method: as §1

[16] = test system: velvetleaf; assay: Test A preemergence; format: in vivo, Abutilon theophrasti
Summary of the method: as §1

[17] = 125 g ai/ha, 0 to 100 scale where 0 is no effect and 100 is complete control

`N#Cc1cccc(Oc2ncc(Cl)cn2)c1-n1cc(C(F)(F)F)cn1` [Compound 58, 3-[(5-chloro-2-pyrimidinyl)oxy]-2-[4-(trifluoromethyl)-1H-pyrazol-1-yl]benzonitrile] was tested, and the “Plant response rating, Morningglory” value [1, 17] was 100, the pest or weed control at 500 g/ha ([1]; Ipomoea, pre-emergence, 240 h, 500 g ai/ha, 0 to 100 scale, 0 no effect, 100 complete control, approx. 10 days, read-out: Morningglory plant response rating) was 100% and the pest or weed control at 125 g/ha ([2]; 125 g ai/ha, postemergence, read-out: Plant response rating (0 to 100), Velvetleaf) was 60%. It also gave a pest or weed control at 250 g/ha ([2]; 250 g ai/ha, postemergence, read-out: Plant response rating (0 to 100), Velvetleaf) of 85%, a pest or weed control at 31 g/ha ([2]; Postemergence, 31 g ai/ha, scale 0 to 100 (0 no effect, 100 complete control), 13 to 15 days, read-out: Plant response rating, Velvetleaf) of 45% and a pest or weed control at 62 g/ha ([2]; Postemergence, 62 g ai/ha, scale 0 to 100 (0 no effect, 100 complete control), read-out: Plant response rating, Velvetleaf) of 50%. It also gave a pest or weed control at 62 g/ha ([3]; 62 g ai/ha, preemergence, scale 0 (no effect) to 100 (complete control), read-out: Foxtail, Giant plant response rating) of 100%, a pest or weed control at 125 g/ha ([3]; 125 g ai/ha, preemergence, scale 0 (no effect) to 100 (complete control), read-out: Foxtail, Giant plant response rating) of 100% and a pest or weed control at 250 g/ha ([3]; 250 g ai/ha, preemergence, scale 0 (no effect) to 100 (complete control), read-out: Foxtail, Giant plant response rating) of 100%. It also gave a pest or weed control at 31 g/ha ([3]; Preemergence, 31 g ai/ha, scale 0 to 100, 0 no effect, 100 complete control, read-out: Plant response rating, Foxtail, Giant) of 100%, a pest or weed control at 62 g/ha ([4]; 62 g ai/ha, preemergence, scale 0 (no effect) to 100 (complete control), read-out: Ragweed plant response rating) of 100% and a pest or weed control at 125 g/ha ([4]; 125 g ai/ha, preemergence, scale 0 (no effect) to 100 (complete control), read-out: Ragweed plant response rating) of 100%. For the same compound, the pest or weed control at 250 g/ha ([4]; 250 g ai/ha, preemergence, scale 0 (no effect) to 100 (complete control), read-out: Ragweed plant response rating) was 100%, the pest or weed control at 31 g/ha ([4]; Preemergence, 31 g ai/ha, scale 0 to 100, 0 no effect, 100 complete control, read-out: Plant response rating, Ragweed) was 85% and the pest or weed control at 125 g/ha ([5]; 125 g ai/ha, 0 to 100 scale where 0 is no effect and 100 is complete control, read-out: Plant response rating, Crabgrass, Large) was 100%. It also gave a pest or weed control at 500 g/ha ([5]; 500 g ai/ha, 0 to 100 scale, 0 no effect, 100 complete control, approx. 10 days, read-out: Crabgrass, Large plant response rating) of 100%, a pest or weed control at 125 g/ha ([6]; 125 g ai/ha, postemergence, read-out: Plant response rating (0 to 100), Pigweed) of 98% and a pest or weed control at 250 g/ha ([6]; 250 g ai/ha, postemergence, read-out: Plant response rating (0 to 100), Pigweed) of 100%. It also gave a pest or weed control at 31 g/ha ([6]; Postemergence, 31 g ai/ha, scale 0 to 100 (0 no effect, 100 complete control), 13 to 15 days, read-out: Plant response rating, Pigweed) of 90%, a pest or weed control at 62 g/ha ([6]; Postemergence, 62 g ai/ha, scale 0 to 100 (0 no effect, 100 complete control), read-out: Plant response rating, Pigweed) of 95% and a pest or weed control at 125 g/ha ([7]; 125 g ai/ha, 0 to 100 scale where 0 is no effect and 100 is complete control, read-out: Plant response rating, Pigweed) of 100%. For the same compound, the pest or weed control at 500 g/ha ([7]; 240 h, 500 g ai/ha, 0 to 100 scale, 0 no effect, 100 complete control, approx. 10 days, read-out: Pigweed plant response rating) was 100%, the Corn plant response rating (crop injury, 0 = no effect, 100 = complete kill) at 125 g/ha [8, 17] was 100% and the plant injury at 500 g/ha ([8]; 500 g ai/ha, 0 to 100 scale, 0 no effect, 100 complete control, read-out: Plant response rating Corn) was 100%. For the same compound, the pest or weed control at 62 g/ha ([9]; 62 g ai/ha, preemergence, scale 0 (no effect) to 100 (complete control), read-out: Waterhemp plant response rating) was 100%, the pest or weed control at 125 g/ha ([9]; 125 g ai/ha, preemergence, scale 0 (no effect) to 100 (complete control), read-out: Waterhemp plant response rating) was 100% and the pest or weed control at 250 g/ha ([9]; 250 g ai/ha, preemergence, scale 0 (no effect) to 100 (complete control), read-out: Waterhemp plant response rating) was 100%. For the same compound, the pest or weed control at 31 g/ha ([9]; Preemergence, 31 g ai/ha, scale 0 to 100, 0 no effect, 100 complete control, read-out: Plant response rating, Waterhemp) was 100%, the pest or weed control at 125 g/ha ([10]; 125 g ai/ha, postemergence, read-out: Plant response rating (0 to 100), Galium) was 85% and the pest or weed control at 250 g/ha ([10]; 250 g ai/ha, postemergence, read-out: Plant response rating (0 to 100), Galium) was 95%. It also gave a pest or weed control at 31 g/ha ([10]; Postemergence, 31 g ai/ha, scale 0 to 100 (0 no effect, 100 complete control), 13 to 15 days, read-out: Plant response rating, Galium) of 60%, a pest or weed control at 62 g/ha ([10]; Postemergence, 62 g ai/ha, scale 0 to 100 (0 no effect, 100 complete control), read-out: Plant response rating, Galium) of 70% and a pest or weed control at 62 g/ha ([11]; 62 g ai/ha, preemergence, scale 0 (no effect) to 100 (complete control), read-out: Johnsongrass plant response rating) of 100%. The pest or weed control at 125 g/ha ([11]; 125 g ai/ha, preemergence, scale 0 (no effect) to 100 (complete control), read-out: Johnsongrass plant response rating) was 100%, the pest or weed control at 250 g/ha ([11]; 250 g ai/ha, preemergence, scale 0 (no effect) to 100 (complete control), read-out: Johnsongrass plant response rating) was 100% and the pest or weed control at 31 g/ha ([11]; Preemergence, 31 g ai/ha, scale 0 to 100, 0 no effect, 100 complete control, read-out: Plant response rating, Johnsongrass) was 85%. It also gave a plant injury at 125 g/ha ([12]; 125 g ai/ha, postemergence, read-out: Plant response rating (0 to 100), Oilseed Rape) of 85%, a plant injury at 250 g/ha ([12]; 250 g ai/ha, postemergence, read-out: Plant response rating (0 to 100), Oilseed Rape) of 85% and a plant injury at 31 g/ha ([12]; Postemergence, 31 g ai/ha, scale 0 to 100 (0 no effect, 100 complete control), 13 to 15 days, read-out: Plant response rating, Oilseed Rape) of 60%. It also gave a plant injury at 62 g/ha ([12]; Postemergence, 62 g ai/ha, scale 0 to 100 (0 no effect, 100 complete control), read-out: Plant response rating, Oilseed Rape) of 70%, a plant injury at 62 g/ha ([13]; 62 g ai/ha, preemergence, scale 0 (no effect) to 100 (complete control), read-out: Soybean plant response rating) of 95% and a plant injury at 125 g/ha ([13]; 125 g ai/ha, preemergence, scale 0 (no effect) to 100 (complete control), read-out: Soybean plant response rating) of 98%. The plant injury at 250 g/ha ([13]; 250 g ai/ha, preemergence, scale 0 (no effect) to 100 (complete control), read-out: Soybean plant response rating) was 98%, the plant injury at 31 g/ha ([13]; Preemergence, 31 g ai/ha, scale 0 to 100, 0 no effect, 100 complete control, read-out: Plant response rating, Soybean) was 90% and the pest or weed control at 125 g/ha ([14]; 125 g ai/ha, postemergence, read-out: Plant response rating (0 to 100), Ragweed) was 85%. It also gave a pest or weed control at 250 g/ha ([14]; 250 g ai/ha, postemergence, read-out: Plant response rating (0 to 100), Ragweed) of 90%, a pest or weed control at 31 g/ha ([14]; Postemergence, 31 g ai/ha, scale 0 to 100 (0 no effect, 100 complete control), 13 to 15 days, read-out: Plant response rating, Ragweed) of 40% and a pest or weed control at 62 g/ha ([14]; Postemergence, 62 g ai/ha, scale 0 to 100 (0 no effect, 100 complete control), read-out: Plant response rating, Ragweed) of 45%. The plant injury at 125 g/ha ([15]; 125 g ai/ha, 0 to 100 scale where 0 is no effect and 100 is complete control, read-out: Plant response rating, Wheat) was 90%, the plant injury at 500 g/ha ([15]; 500 g ai/ha, 0 to 100 scale, 0 no effect, 100 complete control, read-out: Plant response rating Wheat) was 100% and the “Plant response rating, Velvetleaf” value [16, 17] was 90. It also gave a pest or weed control at 500 g/ha ([16]; Abutilon theophrasti, pre-emergence, 240 h, 500 g ai/ha, 0 to 100 scale, 0 no effect, 100 complete control, approx. 10 days, read-out: Velvetleaf plant response rating) of 100%.
